From patent US20040063746A1, “Indole, azaindole and related heterocyclic ureido and thioureido piperazine derivatives” (priority 2002, published 2004)

system: HIV-1 single-round infectious reporter virus; assay: microbe, parasite or virus in culture; assay type: cell-based; details: Human immunodeficiency virus 1, HeLa, 72 h, read-out: EC50 Group from Table 1
Procedure: Virus production-Human embryonic Kidney cell line, 293T, was propagated in Dulbecco's Modified Eagle Medium (Invitrogen, Carlsbad, Calif.) containing 10% fetal Bovine serum (FBS, Sigma, St. Louis, Mo.).
Virus infection—Human epithelial cell line, HeLa, expressing the HIV-1 receptor CD4 was propagated in Dulbecco's Modified Eagle Medium (Invitrogen, Carlsbad, Calif.) containing 10% fetal Bovine serum (FBS, Sigma, St. Louis, Mo.) and supplemented with 0.2 mg/mL Geneticin (Invitrogen, Carlsbad, Calif.).
Virus-Single-round infectious reporter virus was produced by co-transfecting human embryonic Kidney 293 cells with an HIV-1 envelope DNA expression vector and a proviral cDNA containing an envelope deletion mutation and the luciferase reporter gene inserted in place of HIV-1 nef sequences (Chen et al, Ref. 41). Transfections were performed using lipofectAMINE PLUS reagent as described by the manufacturer (Invitrogen, Carlsbad, Calif.).
1. HeLa CD4 cells were plated in 96 well plates at a cell density of 1×10^4 cells per well in 100 μl Dulbecco's Modified Eagle Medium containing 10% fetal Bovine serum and incubated overnight.
2. Compound was added in a 2 μl dimethylsulfoxide solution, so that the final assay concentration would be ≦10 μM.
3. 100 μl of single-round infectious reporter virus in Dulbecco's Modified Eagle Medium was then added to the plated cells and compound at an approximate multiplicity of infection (MOI) of 0.01, resulting in a final volume of 200 μl per well.
4. Virally-infected cells were incubated at 37 degrees Celsius, in a CO2 incubator, and harvested 72 h after infection.
5. Viral infection was monitored by measuring luciferase expression from viral DNA in the infected cells using a luciferase reporter gene assay kit, as described by the manufacturer (Roche Molecular Biochemicals, Indianapolis, Ind.). Infected cell supernatants were removed and 50 μl of lysis buffer was added per well. After 15 minutes, 50 μl of freshly-reconstituted luciferase assay reagent was added per well. Luciferase activity was then quantified by measuring luminescence using a Wallac microbeta scintillation counter.
7. An EC50 provides a method for comparing the antiviral potency of the compounds of this invention. The effective concentration for fifty percent inhibition (EC50) was calculated with the Microsoft Excel Xlfit curve fitting software. For each compound, curves were generated from percent inhibition calculated at 10 different concentrations by using a four paramenter logistic model (model 205). Table 1 is the key for the data in Table 2.

`COC(=O)c1ccc(F)c2c(C(=O)C(=O)N3CCN(C(=O)N(C)C)CC3)c[nH]c12` [Example 1] was tested. Which EC50 did it give?
The EC50 was 1000 to 5000 nM.

Which EC50 does the source give for `CNC(=O)c1ccc(F)c2c(C(=O)C(=O)N3CCN(C(=O)N(C)C)CC3)c[nH]c12` [Example 2] here?
Its EC50 is under 1000 nM.

How did the EC50 turn out when `CNC(=O)c1ccc(F)c2c(C(=O)C(=O)N3CCN(C(=S)N(C)C)CC3)c[nH]c12` [Example 3] was run?
The EC50 was under 1000 nM.

`CNC(=O)c1ccc(F)c2c(C(=O)C(=O)N3CCN(C(=O)N(C)c4ccccc4)CC3)c[nH]c12` [Example 4] was tested. Which EC50 did it give?
The EC50 was 1000 to 5000 nM.

`CCN(CC)C(=O)N1CCN(C(=O)C(=O)c2c[nH]c3c(C(=O)NC)ccc(F)c23)CC1` [Example 5] was tested. Which EC50 did it give?
Its EC50 is 1000 to 5000 nM.

With `CNC(=O)c1ccc(F)c2c(C(=O)C(=O)N3CCN(C(=O)N(C(C)C)C(C)C)CC3)c[nH]c12` [Example 6] as the compound, how does the EC50 read?
The EC50 was over 5000 nM.

Which EC50 does the source give for `CNC(=O)c1ccc(F)c2c(C(=O)C(=O)N3CCN(C(=O)NC(C)(C)C)CC3)c[nH]c12` [Example 7] here?
The EC50 was over 5000 nM.

`CCCCNC(=S)N1CCN(C(=O)C(=O)c2c[nH]c3c(C(=O)NC)ccc(F)c23)CC1` [Example 8] was tested. Which EC50 did it give?
Its EC50 is over 5000 nM.

For `CN(C)C(=O)N1CCN(C(=O)C(=O)c2c[nH]c3c(-n4cncn4)ncc(F)c23)CC1` [Example 9], which EC50 is on record?
Its EC50 is under 1000 nM.

`CNC(=O)c1ccc(F)c2c(C(=O)C(=O)N3CCN(C(=O)N4CCCC4)CC3)c[nH]c12` [Example 15] was tested. Which EC50 did it give?
Its EC50 is 1000 to 5000 nM.
